These results are taken from PMC6315506 (Viruses, 2018).

The test system of data set [1] is EBOV. As to conditions: cited from earlier work.
The test system of data set [2] is HIV-1/EBOV pseudovirus. Description: organism not typed. Particulars: A549, 48 h, read-out: Inhibition HIV-1/EBOV.
The test system of data set [3] is HIV-1/H5N1 pseudovirus. Description: organism not typed. The class given is cell-based, influenza A virus A/Goose/Qinghai/59/05 (H5N1). As to conditions: A549, 48 h, read-out: Inhibition HIV-1/H5N1.
A short description of data set [4]: in vitro. As to conditions: human.
The test system of data set [5] is HIV-1/LASV pseudovirus. Description: microbe, parasite or virus in culture. The class given is cell-based. As to conditions: Human immunodeficiency virus 1, A549, 48 h, read-out: Inhibition HIV-1/LASV.
The test system of data set [6] is HIV-1/EBOV pseudovirus. Description: microbe, parasite or virus in culture. As to conditions: Zaire ebolavirus, A549, read-out: IC50 (anti-HIV-1/EBOV).
Data set [7] concerns HIV-1/EBOV pseudovirus.
The subject of data set [8] is EBOV Mayinga isolate (EBOV-GFP). Description: microbe, parasite or virus in culture. The class given is cell-based, Ebola virus. Particulars: for IC50: read-out: IC50 against replication of infectious EBOV.
Data set [9] concerns the target Ebola glycoprotein. Particulars: cited from earlier work.

Each structure is given as a SMILES string. Read-outs that look alike come from different tables or passages of the source.

Take `CCN(CC)CC(=O)NCc1cc(-c2ccc(I)cc2)no1` [3,5-Disubstituted isoxazole]: the IC50 in [1] was 2.5 µM.
`O=c1oc2c(O)c(O)cc3c(=O)oc4c(O)c(O)cc1c4c23` [Ellagic acid]: the IC50 in data set [1] is 1.4 µM.
As to `COc1ccc(S(=O)(=O)N(CC(=O)Nc2ccccc2-c2ccccc2)c2ccc(C)cc2)cc1` [MBX 2254], the IC90 (as a rule, the concentration at which the effect reaches the 90% level) in [1] was 3 µM.
Consider `COc1nc2ccccc2cc1C(O)(Cc1cccc(F)c1)c1ccccc1CN(C)C` (stereo not drawn) [SYL1640], for which the results for the inhibition at 10 µM in data set [2], in [3] and in data set [5] were 79.1%, -1.97% and -15.1%, respectively. In data set [4], the CC50 is 190 µM. Moreover, the viability (usually a read-out of living cells in per cent, often relative to untreated cells) at 10 µM in [4] is 97.6%. The IC50 in data set [6] came to 2.96 µM. For the same compound, the “SI (CC50/IC50)” value in [7] was 64.3.
In the case of `COc1nc2ccccc2cc1C(c1ccccc1)C(O)(CC(=O)N(C)C)c1cccc2ccccc12` (stereo not drawn) [SYL1642], the figures for the inhibition at 10 µM in [2], in [3] and in data set [5] were 92.2%, 14.1% and 35%, respectively. Moreover, the CC50 in data set [4] stood at 152 µM. For the same compound, the viability at 10 µM in [4] was found to be 72.3%. In addition, in data set [6], the IC50 stood at 5.21 µM. The “SI (CC50/IC50)” value in data set [7] stood at 29.2.
In the case of `COc1nc2ccc(Br)cc2cc1C(O)(CCc1ccccc1)c1ccccc1CN(C)C` (stereo not drawn) [SYL1654], the values for the inhibition at 10 µM in data set [2], in [3] and in [5] were 84.8%, 8.04% and 18.8%, respectively. In data set [4], this compound had a CC50 of 222 µM. The viability at 10 µM in data set [4] stood at 94.7%. For the same compound, the IC50 in data set [6] came out at 4.98 µM. Further, the “SI (CC50/IC50)” value in [7] was 44.7.
For the compound `COc1ccc(CC(O)(c2ccccc2CN(C)C)c2cc3cc(Br)ccc3nc2OC)cc1` (stereo not drawn) [SYL1655], the inhibition at 10 µM in data set [2] is 90.3%; in data set [3], -17.2%; in [5], 28.9%. The compound further registered a CC50 in data set [4] of 132 µM. Moreover, the viability at 10 µM in data set [4] came out at 95.3%. For the same compound, in data set [6], the IC50 turned out to be 2.65 µM. The “SI (CC50/IC50)” value in [7] is 49.9.
As for `COc1cccc(COc2nc3ccc(Br)cc3cc2-c2cccc(CN(C)C)c2)c1` [SYL1657], the inhibition at 10 µM in [2] is 89.2%; in data set [3], 0.16%; in [5] it was 25.8%. Further, the CC50 in [4] is 215 µM. Further, the viability at 10 µM in data set [4] was 93.9%. Moreover, the IC50 in [6] was 3.56 µM. For the same compound, in data set [7], the “SI (CC50/IC50)” value is recorded as 60.3.
Turning to `Brc1ccc2nc(OCc3cccc4ccccc34)c(-c3cnn(C4CCCCO4)c3)cc2c1` (stereo not drawn) [SYL1658], the inhibition at 10 µM was 77.4% in data set [2], 36.9% in data set [3] and 19.2% in [5]. Moreover, the CC50 in data set [4] was found to be 110 µM. Besides, in data set [4], the viability at 10 µM is 72.7%. Moreover, the IC50 in [6] is 8.65 µM. In addition, the “SI (CC50/IC50)” value in data set [7] is on record as 12.7.
As for `COC1=Nc2ccccc2C(C2(c3ccccc3)CCN(C)CC2)C1C(=O)c1ccccc1` (stereo not drawn) [SYL1660], the inhibition at 10 µM was 97.5% in [2], 3.34% in data set [3] and -26.6% in [5]. In data set [4], the CC50 worked out at 185 µM. For the same compound, in data set [4], the viability at 10 µM came to 106%. The IC50 in data set [6] came out at 2.58 µM. For the same compound, the “SI (CC50/IC50)” value in [7] was 71.6.
Consider `Brc1ccc2nc(OCc3cccc4ccccc34)c(-c3ccc(CNC45CC6CC(CC(C6)C4)C5)cc3)cc2c1` [SYL1683], for which the inhibition at 10 µM in data set [2] was determined as 95.7%; in data set [3], 21.7%; in data set [5], 26.3%. The compound further showed a CC50 in [4] of 235 µM. For the same compound, in [4], the viability at 10 µM was 104%. Further, in [6], the IC50 turned out to be 2.93 µM. The “SI (CC50/IC50)” value in data set [7] came out at 80.3.
On to `CN(C)Cc1ccc(-c2cc3cc(Br)ccc3nc2-n2ccnc2)cc1` [SYL1711], for which the inhibition at 10 µM in data set [2] was found to be 98.7%; in data set [3], 38.3%; in data set [5], 25.5%. In addition, in [4], the CC50 was 242 µM. In addition, the viability at 10 µM in data set [4] was found to be 90.7%. In addition, the IC50 in data set [6] turned out to be 4.11 µM. Further, the “SI (CC50/IC50)” value in [7] is recorded as 58.9.
With `CN(C)Cc1ccc(-c2cc3cc(Br)ccc3nc2OCc2ccc(Cl)cc2)cc1` [SYL1712], in data set [8], the “selective index (SI)” value was determined as 37.2. Besides, the IC50 was 2 µM in [8] (Zaire ebolavirus, HeLa, 24 h); 1.99 µM in [8]; approximately 1 µM in data set [6]; 0.95 µM in data set [7] (read-out: IC50 (anti-HIV-1/EBOV)). Also, the inhibition at 10 µM in data set [2] was 99.4%; in [3], 5.75%; in [5], 55.4%. Further, in [4], the viability at 10 µM is 96.9%. For the same compound, in data set [7], the “SI (CC50/IC50)” value was determined as 225.9.
`CN(C)CCOc1ccc(/C(=C(/CCCl)c2ccccc2)c2ccccc2)cc1` [Toremifene]: the Kd – broadly, the concentration at which binding is half-saturated – in data set [9] is 16 µM.
With `FC(F)C(F)(F)C1=Nc2ccccc2N=C(c2ccccc2)C1` [benzodiazepine], the IC90 in data set [1] is 3.5 µM.
